From ChEMBL document CHEMBL1142392, “Synthesis and analysis of a fluorinated product analogue as an inhibitor for 1-deoxy-D-xylulose 5-phosphate reductoisomerase” (Bioorg Med Chem Lett, 2008)
The source made the active and inactive calls. The calls are words filed in the database; no cut-off is given here.

Experiment: Inactivation of DXR

Which Activity does the source give for C[C@@](CO)(CF)[C@H](O)COP(=O)(O)O here?
The Activity was “Active”.
